Experimental data as given in patent US20230190761A1, “METHYLENE BLUE STABILIZED MRNA COMPOSITIONS” (ModernaTX, Inc., priority 2020, published 2023).
Several values for one entry are separate records, joined by “and”; a condition that tells them apart may be missing. Equal entries are not always repeated. Entries after “also recorded” stand apart in the source; their conditions may differ.

What was measured:
Assay type in all cases: physicochemical
[1] = tested on: mRNA within LNP formulations; test: Screen of molecular dyes on mRNA stability within LNP formulations (RP-HPLC)
Method: This example discusses the effects of various dye molecules on mRNA stability within LNP formulations. To evaluate the potential stabilization effects of dyes, LNP compositions were prepared containing 2 mM of one of 25 dyes. After incubation for 4 days at 40° C., main peak mRNA purity was measured by RP-HPLC. Variance within this study was estimated from three independent sample replicates with no dye (Sample IDs D0a, D0b and D0c as shown in Table 4) or with 2 mM methylene blue (Sample IDs D1a, D1b and D1c as shown in Table 4). […] The main peak purity measured in each mRNA-LNP formulation, as well as its difference relative to the no dye controls is shown in Table 4. Positive differences relative to no dye represent improvements in mRNA stability, and negative differences represent worsened mRNA stability.

mRNA-LNP formulations = test: mRNA-LNP stability in differing buffer conditions with or without methylene blue (fragmentation analysis and RP-HPLC); details: 150 mM NaCl, 2 mM MB
Method: This example discusses stabilization effects of methylene blue on mRNA-LNP formulations in varying buffer conditions. To match experiments conducted on lyophilized products, which were reconstituted in saline, and refrigerated/frozen formulations in TRIS-Sucrose, two buffers across the range of pH were tested. Sodium chloride was added to mimic saline, as it can cause methylene blue to crash out of solution.

mRNA [2] = test: DLS of methylene blue-mRNA interaction; details: methylene blue concentrations in the 10 μM range; data not shown
Description: The images in FIG. 22 show the effect of thionine on mRNA-LNPs. […] The significant protection against fragmentation and adduct formation conferred by the compounds disclosed herein may be based on this effect on nucleic acid conformational state.

[3] = LC/MS analysis of PEG-lipid stability in presence of methylene blue
Method: This example describes the effects of methylene blue on lipid components of LNP formulations. PEG-lipid is known to be susceptible to oxidative degradation. Given the degradation mechanism attributed to methylene blue, an accelerated study was performed to evaluate whether the presence of methylene blue adversely affects PEG-lipid stability. Lyso-PEG-DMG is considered a primary bellwether of PEG-lipid degradation. As such, its concentration in samples was measured using liquid chromatography/mass spectrometry (LC/MS) after storage of LNPs at room temperature (FIG. 7A) or 5° C. (FIG. 7B) in the presence of a range of methylene blue concentrations.

[4] = tested on: lipid nanoparticles (LNP); test: Permeation of phenothiazinium dyes into LNP and binding to encapsulated mRNA; details: optical spectroscopic studies, Cryo-EM, DLS, isothermal titration calorimetry
Description: This example describes phenothiazinium dyes which interact with mRNA and their impact on LNP formulations. […] These interpretations were made based on extensive optical spectroscopic studies, Cryo-EM, dynamic light scattering (DLS) and isothermal titration calorimetry studies.

mRNA [5] = test: Circular dichroism of mRNA with methylene blue; details: addition of methylene blue (210 μM, 367 μM)
Description: The effect of methylene blue on the conformational state of mRNA is also apparent from the circular dichroism (CD) spectra shown in FIG. 20. The CD bands correspond to the intrinsic CD of the mRNA itself. […] The stabilizing effect of methylene blue observed on mRNA may be attributed to this binding and conformational stabilization evident from the DSC thermograms (FIGS. 18 and 19).

[6] = tested on: mRNA in LNP formulation containing two mRNA; test: Chemical stability of mRNA-LNP after 5 months refrigerated storage
Method: This example relates to stabilization of mRNA in LNP formulations by the addition of methylene blue over long-term refrigerated storage. […] To confirm that this stabilization effect would also occur with long-term refrigerated storage, a study was conducted to evaluate the effect of various concentrations of methylene blue (0, 0.5, 1, 1.5 and 2.0 mM) on the stability of a lipid nanoparticle formulation containing two distinct mRNA compounds stored at 5° C.
To determine the effects of methylene blue on the chemical stability of mRNA-LNP formulations over long-term refrigerated storage, mRNA purity, mRNA fragmentation, and mRNA-lipid adduct formation were measured over time in mRNA-LNP samples containing varying concentrations of methylene blue (A=0 mM, B=0.5 mM, C=1.0 mM, D=1.5 mM, E=2.0 mM methylene blue). Total purity was determined according to main peak percentage by RP-HPLC (FIG. 13A), fragmentation was determined according to fragmentation analysis (FIG. 13B), and mRNA-lipid adduct formation was determined according to RP-HPLC (FIG. 13C).

Main Peak Purity after 4 days at 40° C. (%) ([1]; 2 mM dye in mRNA-LNP, RP-HPLC, no value (—) = physically unstable, no reliable chromatographic result, interpreted as destabilizing): 89.62% and 90.27% and 85.96%
Mean (Main Peak Purity after 4 days at 40° C.) ([1]; 2 mM dye, three independent sample replicates): 89 ± 2%
Difference relative to No Dye ([1]; main peak purity, 2 mM dye, 4 days at 40° C., ±4% interpreted as significant): 14%
Adduct (mRNA-LNP formulations; pH 7, TRIS-sucrose buffer): 17.6%
Fragmentation (mRNA-LNP formulations; pH 7, TRIS-sucrose buffer): 16.0%
Main peak (mRNA-LNP formulations; pH 7, TRIS-sucrose buffer): 66.4%
Adduct (mRNA-LNP formulations; pH 7, phosphate buffer): 23.9%
Fragmentation (mRNA-LNP formulations; pH 7, phosphate buffer): 17.1%
Main peak (mRNA-LNP formulations; pH 7, phosphate buffer): 59.1%
Adduct (mRNA-LNP formulations; pH 7.5, TRIS-sucrose buffer): 16.4%
Fragmentation (mRNA-LNP formulations; pH 7.5, TRIS-sucrose buffer): 19.5%
Main peak (mRNA-LNP formulations; pH 7.5, TRIS-sucrose buffer): 64.1%
Adduct (mRNA-LNP formulations; pH 7.5, phosphate buffer): 22.0%
Fragmentation (mRNA-LNP formulations; pH 7.5, phosphate buffer): 18.7%
Main peak (mRNA-LNP formulations; pH 7.5, phosphate buffer): 59.4%
Adduct (mRNA-LNP formulations; pH 8, TRIS-sucrose buffer): 15.9%
Fragmentation (mRNA-LNP formulations; pH 8, TRIS-sucrose buffer): 22.9%
Main peak (mRNA-LNP formulations; pH 8, TRIS-sucrose buffer): 61.2%
Adduct (mRNA-LNP formulations; pH 8, phosphate buffer): 22.7%
Fragmentation (mRNA-LNP formulations; pH 8, phosphate buffer): 25.0%
Main peak (mRNA-LNP formulations; pH 8, phosphate buffer): 52.2%
Adduct (mRNA-LNP formulations; pH 8.5, TRIS-sucrose buffer): 13.3%
Fragmentation (mRNA-LNP formulations; pH 8.5, TRIS-sucrose buffer): 32.5%
Main peak (mRNA-LNP formulations; pH 8.5, TRIS-sucrose buffer): 54.1%
intrinsic CD bands of mRNA (mRNA [5]): significant perturbation in these bands
optimal methylene blue concentration with respect to adduct formation ([6]; 5 months refrigerated storage, RP-HPLC): 1.5 mM
SMILES: CN(C)c1ccc2nc3ccc(N(C)C)cc3[s+]c2c1 [methylene blue]
mRNA hydrodynamic radii (DLS) (mRNA [2]): measurable decrease in mRNA hydrodynamic radii
total quantity of PEG-lipid (LC/MS) ([3]; 0, 0.1, 0.5 and 1 mM methylene blue, 1 week at room temperature or 5° C.): no effect on the total quantity of PEG-lipid present
Lyso-PEG-DMG signal (LC/MS) ([3]; 0 to 1.0 mM methylene blue, LNPs at room temperature or 5° C., 1 week): no difference in Lyso-PEG-DMG signal was detected
permeation of lipid nanoparticles and binding to encapsulated mRNA [4]: does not permeate LNPs to the same extent as certain other phenothiazinium dyes
mRNA fragmentation rate ([6]; methylene blue as low as 0.5 mM, 5 months (151 days) refrigerated storage): significantly inhibit mRNA fragmentation rate relative to LNP compositions lacking dye; also recorded: significantly inhibited relative to control
